Reference: patent publication US8716316B2 (Hoffmann-La Roche Inc., priority 2009, dated 2014)

Molecular target: T1, human mGlu5a receptor (Homo sapiens, UniProt P41594)
T1 construct: expressed in transfected cells
Assay: Intracellular Ca2+ mobilization assay
Assay type: cell-based
Details: for Emax: HEK293, read-out: Efficacy (%); for EC50: HEK-293 cells stably transfected with human mGlu5a receptor, pre-incubation 10-30 min with test compound, then L-glutamate at EC20 (typically around 80 μM), Fluo-4AM fluorescence, read-out: EC50 (nM) mGluR5 PAM
Protocol: A monoclonal HEK-293 cell line stably transfected with a cDNA encoding for the human mGlu5a receptor was generated; for the work with mGlu5 Positive Allosteric Modulators (PAMs), a cell line with low receptor expression levels and low constitutive receptor activity was selected to allow the differentiation of agonistic versus PAM activity. Cells were cultured according to standard protocols (Freshney, 2000) in Dulbecco's Modified Eagle Medium with high glucose supplemented with 1 mM glutamine, 10% (vol/vol) heat-inactivated bovine calf serum, Penicillin/Streptomycin, 50 μg/ml hygromycin and 15 μg/ml blasticidin (all cell culture reagents and antibiotics from Invitrogen, Basel, Switzerland).
About 24 hrs before an experiment, 5×10^4 cells/well were seeded in poly-D-lysine coated, black/clear-bottomed 96-well plates. The cells were loaded with 2.5 μM Fluo-4AM in loading buffer (1×HBSS, 20 mM HEPES) for 1 hr at 37° C. and washed five times with loading buffer. The cells were transferred into a Functional Drug Screening System 7000 (Hamamatsu, Paris, France), and 11 half logarithmic serial dilutions of test compound at 37° C. were added and the cells were incubated for 10-30 min. with on-line recording of fluorescence. Following this pre-incubation step, the agonist L-glutamate was added to the cells at a concentration corresponding to EC20 (typically around 80 μM) with on-line recording of fluorescence; in order to account for day-to-day variations in the responsiveness of cells, the EC20 of glutamate was determined immediately ahead of each experiment by recording of a full dose-response curve of glutamate.
Responses were measured as peak increase in fluorescence minus basal (i.e. fluorescence without addition of L-glutamate), normalized to the maximal stimulatory effect obtained with saturating concentrations of L-glutamate. Graphs were plotted with the % maximal stimulatory using XLfit, a curve fitting program that iteratively plots the data using Levenburg Marquardt algorithm. The single site competition analysis equation used was y=A+((B−A)/(1+((x/C)D))), where y is the % maximal stimulatory effect, A is the minimum y, B is the maximum y, C is the EC50, x is the log 10 of the concentration of the competing compound and D is the slope of the curve (the Hill Coefficient). From these curves the EC50 (concentration at which half maximal stimulation was achieved), the Hill coefficient as well as the maximal response in % of the maximal stimulatory effect obtained with saturating concentrations of L-glutamate were calculated.
A depression of the signal observed after addition of the EC20 concentration of L-glutamate was indicative of an inhibitory activity of the test compound.

[1] = maximal response in % of the maximal stimulatory effect obtained with saturating concentrations of L-glutamate, HEK-293 human mGlu5a cells, L-glutamate at EC20

T1 sequence (P41594 21-1180 isoform P41594-2 limits assumed): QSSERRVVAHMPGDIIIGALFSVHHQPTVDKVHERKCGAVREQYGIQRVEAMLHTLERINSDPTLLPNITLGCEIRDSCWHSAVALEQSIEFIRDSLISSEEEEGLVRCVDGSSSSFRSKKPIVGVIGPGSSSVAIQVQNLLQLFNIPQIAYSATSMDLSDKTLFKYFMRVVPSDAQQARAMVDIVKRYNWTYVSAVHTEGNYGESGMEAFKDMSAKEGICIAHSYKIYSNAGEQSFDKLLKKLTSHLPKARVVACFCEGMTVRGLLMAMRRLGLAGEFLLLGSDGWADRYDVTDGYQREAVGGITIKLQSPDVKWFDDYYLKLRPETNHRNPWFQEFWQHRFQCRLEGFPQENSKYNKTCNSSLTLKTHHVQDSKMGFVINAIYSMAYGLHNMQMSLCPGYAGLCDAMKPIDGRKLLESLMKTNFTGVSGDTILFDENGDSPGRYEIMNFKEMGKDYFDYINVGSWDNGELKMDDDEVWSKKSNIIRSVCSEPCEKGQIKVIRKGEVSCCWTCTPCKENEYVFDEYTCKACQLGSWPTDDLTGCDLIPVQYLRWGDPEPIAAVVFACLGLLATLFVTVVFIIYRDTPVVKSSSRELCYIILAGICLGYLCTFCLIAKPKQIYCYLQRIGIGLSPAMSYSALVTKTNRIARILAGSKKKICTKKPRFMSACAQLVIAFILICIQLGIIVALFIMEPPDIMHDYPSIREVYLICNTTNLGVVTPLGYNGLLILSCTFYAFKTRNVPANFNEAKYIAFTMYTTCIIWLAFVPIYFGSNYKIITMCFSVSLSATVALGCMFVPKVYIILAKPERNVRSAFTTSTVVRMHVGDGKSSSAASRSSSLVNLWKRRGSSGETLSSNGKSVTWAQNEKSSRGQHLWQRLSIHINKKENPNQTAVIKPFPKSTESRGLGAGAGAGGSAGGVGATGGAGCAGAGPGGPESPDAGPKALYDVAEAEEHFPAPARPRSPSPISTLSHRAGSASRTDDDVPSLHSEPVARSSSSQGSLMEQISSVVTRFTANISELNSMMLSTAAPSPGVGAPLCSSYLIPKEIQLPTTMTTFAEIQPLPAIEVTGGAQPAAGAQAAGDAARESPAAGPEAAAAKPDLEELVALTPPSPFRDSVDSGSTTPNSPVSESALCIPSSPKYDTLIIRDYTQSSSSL

Emax [1] | EC50 | Efficacy (%) [1] | Compound
105% | 345 nM | – | COC1CCCC(OC)C1Nc1ncc(C#Cc2ccccc2)cn1 (mixture of isomers) [Example 5, (2,6-dimethoxy-cyclohexyl)-(5-phenylethynyl-pyrimidin-2-yl)-amine]
72% | 340 nM | – | OC1CCCCC1Nc1ncc(C#Cc2ccccc2)cn1 (mixture of isomers) [Example 10, 2-(5-phenylethynyl-pyrimidin-2-ylamino)-cyclohexanol]
78% | 322 nM | – | OC1CCC(Nc2ncc(C#Cc3ccccc3)cn2)C1 (mixture of isomers) [Example 11, 3-(5-phenylethynyl-pyrimidin-2-ylamino)-cyclopentanol]
80% | 560 nM | – | OC1CCCC1Nc1ncc(C#Cc2ccccc2)cn1 (mixture of isomers) [Example 12, 2-(5-phenylethynyl-pyrimidin-2-ylamino)-cyclopentanol]
89% | 172 nM | – | CC1(C)CC(Nc2ncc(C#Cc3ccccc3)cn2)CCO1 (racemic) [Example 3, rac-(2,2-Dimethyl-tetrahydro-pyran-4-yl)-(5-phenylethynyl-pyrimidin-2-yl)-amine]
113% | 195 nM | – | C(#Cc1cnc(N[C@H]2C[C@@H]3CC[C@H]2O3)nc1)c1ccccc1 (racemic) [Example 4, rac-7-Oxa-bicyclo[2.2.1]hept-2-yl-(5-phenylethynyl-pyrimidin-2-yl)-amine]
113% | 324 nM | – | CC1(C)CC(Nc2ncc(C#Cc3ccccc3)cn2)CCC1O (racemic) [Example 16, 2,2-Dimethyl-4-(5-phenylethynyl-pyrimidin-2-ylamino)-cyclohexanol]
121% | 168 nM | – | OC1CCC(Oc2ncc(C#Cc3ccccc3)cn2)CC1 (racemic) [Example 22, rac-4-(5-Phenylethynyl-pyrimidin-2-yloxy)-cyclohexanol]
90% | 200 nM | – | OC1CCC(Oc2ncc(C#Cc3ccccc3)cc2F)CC1 (racemic) [Example 27, rac-4-(3-Fluoro-5-phenylethynyl-pyridin-2-yloxy)-cyclohexanol]
120% | 93 nM | – | CC1CCN(Cc2ccc(C#Cc3ccccc3)cn2)C1=O (racemic) [Example 39, rac-3-Methyl-1-(5-phenylethynyl-pyridin-2-ylmethyl)-pyrrolidin-2-one]
59% | 94 nM | – | CC(c1ccc(C#Cc2ccccc2)cn1)N1CCOC1=O (racemic) [Example 41, rac-3-[1-(5-Phenylethynyl-pyridin-2-yl)-ethyl]-oxazolidin-2-one]
– | 94 nM | 93% | CC1(C)CC(Nc2ncc(C#Cc3ccccc3)cn2)CCC1O (single isomer, unassigned) [Example 17, (1S,4S or 1R,4R)-2,2-Dimethyl-4-(5-phenylethynyl-pyrimidin-2-ylamino)-cyclohexanol]
40% | 26 nM | – | C(#Cc1cnc(NC2CCCC2)nc1)c1ccccc1 [Example 1, Cyclopentyl-(5-phenylethynyl-pyrimidin-2-yl)-amine]
46% | 65 nM | – | C(#Cc1cnc(NC2CCOCC2)nc1)c1ccccc1 [Example 2, (5-Phenylethynyl-pyrimidin-2-yl)-(tetrahydro-pyran-4-yl)-amine]
147% | 844 nM | – | OC[C@H]1CC[C@H](Nc2ncc(C#Cc3ccccc3)cn2)CC1 [Example 6, trans-[4-(5-Phenylethynyl-pyrimidin-2-ylamino)-cyclohexyl]-methanol]
100% | 179 nM | – | O[C@H]1CC[C@H](Nc2ncc(C#Cc3ccccc3)cn2)CC1 [Example 7, trans-4-(5-Phenylethynyl-pyrimidin-2-ylamino)-cyclohexanol]
43% | 43 nM | – | C(#Cc1ccc(NC2CCCC2)nc1)c1ccccc1 [Example 13, Cyclopentyl-(5-phenylethynyl-pyridin-2-yl)-amine]

Emax [1] | EC50 | Efficacy (%) [1] | Compound
59% | 110 nM | – | C(#Cc1ccc(NC2CCOCC2)nc1)c1ccccc1 [Example 14, (5-Phenylethynyl-pyridin-2-yl)-(tetrahydro-pyran-4-yl)-amine]
112% | 52 nM | – | C(#Cc1cnc(NC2CCCCC2)nc1)c1ccccc1 [Example 15, Cyclohexyl-(5-phenylethynyl-pyrimidin-2-yl)-amine]
116% | 192 nM | – | O[C@H]1CC[C@H](Nc2ncc(C#Cc3ccccc3)cc2F)CC1 [Example 18, trans-4-(3-Fluoro-5-phenylethynyl-pyridin-2-ylamino)-cyclohexanol]
55% | 75 nM | – | C[C@H]1CC[C@H](Nc2ncc(C#Cc3ccccc3)cn2)CC1 [Example 19, trans-(4-Methyl-cyclohexyl)-(5-phenylethynyl-pyrimidin-2-yl)-amine]
80% | 206 nM | – | C(#Cc1cnc(NCC2CCOCC2)nc1)c1ccccc1 [Example 20, (5-Phenylethynyl-pyrimidin-2-yl)-(tetrahydro-pyran-4-ylmethyl)-amine]
45% | 78 nM | – | CC1(CNc2ncc(C#Cc3ccccc3)cn2)COC1 [Example 21, (3-Methyl-oxetan-3-ylmethyl)-(5-phenylethynyl-pyrimidin-2-yl)-amine]
94% | 110 nM | – | O[C@H]1CC[C@H](Oc2ncc(C#Cc3ccccc3)cn2)CC1 [Example 23, trans-4-(5-Phenylethynyl-pyrimidin-2-yloxy)-cyclohexanol]
88% | 101 nM | – | CC1(COc2ncc(C#Cc3ccccc3)cn2)COC1 [Example 24, 2-(3-Methyl-oxetan-3-ylmethoxy)-5-phenylethynyl-pyrimidine]
133% | 291 nM | – | O[C@H]1C[C@H](COc2ncc(C#Cc3ccccc3)cn2)C1 [Example 25, trans-3-(5-Phenylethynyl-pyrimidin-2-yloxymethyl)-cyclobutanol]
117% | 99 nM | – | OC[C@H]1C[C@H](Oc2ncc(C#Cc3ccccc3)cn2)C1 [Example 26, trans-[3-(5-Phenylethynyl-pyrimidin-2-yloxy)-cyclobutyl]-methanol]
61% | 45 nM | – | C(#Cc1ccc(OC2CCCCC2)nc1)c1ccccc1 [Example 28, 2-Cyclohexyloxy-5-phenylethynyl-pyridine]
71% | 135 nM | – | CC1(COc2ncc(C#Cc3ccccc3)cc2F)COC1 [Example 29, 3-Fluoro-2-(3-methyl-oxetan-3-ylmethoxy)-5-phenylethynyl-pyridine]
121% | 83 nM | – | O=C1COCCN1Cc1ccc(C#Cc2ccccc2)cn1 [Example 30, 4-(5-Phenylethynyl-pyridin-2-ylmethyl)-morpholin-3-one]
122% | 56 nM | – | O=C1OCCN1Cc1ccc(C#Cc2ccccc2)cn1 [Example 31, 3-(5-Phenylethynyl-pyridin-2-ylmethyl)-oxazolidin-2-one]
145% | 268 nM | – | O=C1CCCCN1Cc1ccc(C#Cc2ccccc2)cn1 [Example 32, 1-(5-Phenylethynyl-pyridin-2-ylmethyl)-piperidin-2-one]
177% | 132 nM | – | CC1(C)CC(=O)N(Cc2ccc(C#Cc3ccccc3)cn2)C1 [Example 33, 4,4-Dimethyl-1-(5-phenylethynyl-pyridin-2-ylmethyl)-pyrrolidin-2-one]
